In ChEMBL document CHEMBL5465560, “Selectivity Literature for EUbOPEN Chemogenomic Library” (2024):

Key:
[1] = target: T1, Lymphokine-activated killer T-cell-originated protein kinase (Homo sapiens) (UniProt Q96KB5); assay: Selectivity interaction (Kinase panel (DSF assay)) EUB0001558a PBK
T1 sequence (whole entry): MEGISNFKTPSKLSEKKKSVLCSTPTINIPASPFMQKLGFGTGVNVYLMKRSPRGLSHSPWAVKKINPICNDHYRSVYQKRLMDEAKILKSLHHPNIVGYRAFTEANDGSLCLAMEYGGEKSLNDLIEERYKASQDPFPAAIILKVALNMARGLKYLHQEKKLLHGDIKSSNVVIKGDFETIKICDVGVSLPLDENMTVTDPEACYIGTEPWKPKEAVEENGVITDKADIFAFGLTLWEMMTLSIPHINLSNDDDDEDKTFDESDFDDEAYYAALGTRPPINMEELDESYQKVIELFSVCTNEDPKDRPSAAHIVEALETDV

[2] = target: Maternal embryonic leucine zipper kinase (Homo sapiens) (UniProt Q14680); assay: Selectivity interaction (KinomeScan (DiscoverX)) EUB0000229b MELK; conditions: at 10 µM
Chain of Maternal embryonic leucine zipper kinase (Homo sapiens) (Q14680 whole entry, looked up): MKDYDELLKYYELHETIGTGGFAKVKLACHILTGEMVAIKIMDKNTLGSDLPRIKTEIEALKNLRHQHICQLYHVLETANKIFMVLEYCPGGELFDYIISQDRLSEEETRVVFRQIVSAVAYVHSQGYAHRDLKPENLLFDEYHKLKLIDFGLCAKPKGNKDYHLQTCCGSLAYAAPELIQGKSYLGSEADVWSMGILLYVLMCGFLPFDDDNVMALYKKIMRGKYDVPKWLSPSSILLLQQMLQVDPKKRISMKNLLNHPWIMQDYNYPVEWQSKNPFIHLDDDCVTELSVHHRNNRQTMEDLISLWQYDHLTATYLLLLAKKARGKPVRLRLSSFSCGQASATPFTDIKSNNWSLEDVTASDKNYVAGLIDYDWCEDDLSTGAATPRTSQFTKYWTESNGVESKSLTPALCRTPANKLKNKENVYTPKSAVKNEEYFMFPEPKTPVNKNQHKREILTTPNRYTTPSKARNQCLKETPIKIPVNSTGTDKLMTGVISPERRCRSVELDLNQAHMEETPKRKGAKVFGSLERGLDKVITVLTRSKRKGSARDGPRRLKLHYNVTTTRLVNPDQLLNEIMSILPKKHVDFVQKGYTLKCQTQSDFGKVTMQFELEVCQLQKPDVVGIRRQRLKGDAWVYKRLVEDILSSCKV

[3] = test system: Mast/stem cell growth factor receptor Kit (Homo sapiens), P10721 [V559D,V654A]; conditions: at 10 µM
Chain of Mast/stem cell growth factor receptor Kit (Homo sapiens), P10721 [V559D,V654A] (P10721 whole entry V559D/V654A): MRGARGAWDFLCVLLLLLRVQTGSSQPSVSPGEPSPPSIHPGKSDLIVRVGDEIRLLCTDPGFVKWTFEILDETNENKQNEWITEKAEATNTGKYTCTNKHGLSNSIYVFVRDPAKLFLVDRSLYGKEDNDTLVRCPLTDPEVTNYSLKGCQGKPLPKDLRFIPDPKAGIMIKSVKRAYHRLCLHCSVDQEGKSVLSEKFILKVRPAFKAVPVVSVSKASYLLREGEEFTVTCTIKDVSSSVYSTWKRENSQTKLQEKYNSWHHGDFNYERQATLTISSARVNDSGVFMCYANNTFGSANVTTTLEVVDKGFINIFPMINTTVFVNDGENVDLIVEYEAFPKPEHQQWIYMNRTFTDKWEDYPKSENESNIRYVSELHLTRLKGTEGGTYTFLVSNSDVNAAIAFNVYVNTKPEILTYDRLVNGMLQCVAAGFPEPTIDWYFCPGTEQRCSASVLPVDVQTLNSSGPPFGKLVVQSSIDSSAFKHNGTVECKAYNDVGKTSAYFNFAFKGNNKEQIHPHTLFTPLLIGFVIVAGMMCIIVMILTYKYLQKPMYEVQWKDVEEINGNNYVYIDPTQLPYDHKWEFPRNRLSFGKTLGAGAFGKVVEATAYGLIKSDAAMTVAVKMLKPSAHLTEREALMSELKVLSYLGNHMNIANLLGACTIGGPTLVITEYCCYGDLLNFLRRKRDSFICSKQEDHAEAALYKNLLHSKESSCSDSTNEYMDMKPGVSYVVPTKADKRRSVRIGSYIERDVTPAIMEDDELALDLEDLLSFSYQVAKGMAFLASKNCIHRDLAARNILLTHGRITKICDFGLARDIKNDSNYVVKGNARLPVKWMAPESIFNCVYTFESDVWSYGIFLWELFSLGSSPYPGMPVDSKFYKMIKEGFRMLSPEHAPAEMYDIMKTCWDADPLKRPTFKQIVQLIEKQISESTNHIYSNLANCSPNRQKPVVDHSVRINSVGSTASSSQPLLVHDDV

[4] = target: T2, Inhibitor of nuclear factor kappa-B kinase subunit alpha (Homo sapiens) (UniProt O15111); assay: Selectivity interaction (Adapta Assay) EUB0001632a CHUK; conditions: at 10 µM
T2 sequence (whole entry): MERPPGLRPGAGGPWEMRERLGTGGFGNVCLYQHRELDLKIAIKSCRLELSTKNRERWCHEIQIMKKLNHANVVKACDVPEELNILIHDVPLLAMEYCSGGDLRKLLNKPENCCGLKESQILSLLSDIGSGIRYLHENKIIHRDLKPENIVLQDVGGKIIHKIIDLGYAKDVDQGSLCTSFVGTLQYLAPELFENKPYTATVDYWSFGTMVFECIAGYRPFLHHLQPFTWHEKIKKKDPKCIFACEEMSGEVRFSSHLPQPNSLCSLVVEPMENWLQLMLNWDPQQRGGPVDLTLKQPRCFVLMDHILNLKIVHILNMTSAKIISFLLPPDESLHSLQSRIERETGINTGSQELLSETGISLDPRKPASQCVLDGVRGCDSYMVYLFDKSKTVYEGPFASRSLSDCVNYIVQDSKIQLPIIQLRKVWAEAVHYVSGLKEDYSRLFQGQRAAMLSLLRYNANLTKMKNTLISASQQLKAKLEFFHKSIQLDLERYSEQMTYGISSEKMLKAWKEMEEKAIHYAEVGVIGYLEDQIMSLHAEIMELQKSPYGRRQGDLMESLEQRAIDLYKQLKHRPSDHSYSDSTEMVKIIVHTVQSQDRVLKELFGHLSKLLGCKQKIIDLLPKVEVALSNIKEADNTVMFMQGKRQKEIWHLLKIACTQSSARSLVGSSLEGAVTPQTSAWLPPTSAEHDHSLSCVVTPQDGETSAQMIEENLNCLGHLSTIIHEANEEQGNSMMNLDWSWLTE

[5] = target: Serine/threonine-protein kinase PAK 1 (Homo sapiens) (UniProt Q13153); assay: Selectivity interaction (Kinase panel (Invitrogen)) EUB0000639a PAK1; conditions: at 200 nM
Chain of Serine/threonine-protein kinase PAK 1 (Homo sapiens) (Q13153 whole entry): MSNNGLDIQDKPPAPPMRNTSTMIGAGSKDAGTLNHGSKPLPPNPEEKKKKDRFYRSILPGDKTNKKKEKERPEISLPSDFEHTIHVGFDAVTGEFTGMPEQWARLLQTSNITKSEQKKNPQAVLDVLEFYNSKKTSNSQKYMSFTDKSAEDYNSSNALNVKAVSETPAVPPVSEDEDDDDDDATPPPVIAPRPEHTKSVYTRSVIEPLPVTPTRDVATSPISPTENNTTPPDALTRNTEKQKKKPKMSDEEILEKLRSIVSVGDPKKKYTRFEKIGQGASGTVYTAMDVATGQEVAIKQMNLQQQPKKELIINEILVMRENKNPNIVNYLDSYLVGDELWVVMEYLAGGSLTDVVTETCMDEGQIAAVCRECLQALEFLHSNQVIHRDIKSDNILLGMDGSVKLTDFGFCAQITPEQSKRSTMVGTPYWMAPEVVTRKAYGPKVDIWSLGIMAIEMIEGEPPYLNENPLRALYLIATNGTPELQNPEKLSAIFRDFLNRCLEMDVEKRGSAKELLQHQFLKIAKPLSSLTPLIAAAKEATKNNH

[6] = target: Potassium voltage-gated channel subfamily A member 1 (Homo sapiens) (UniProt Q09470); assay: Selectivity interaction (Panel of non-epigenetic targets (kinases, GPCRs, ion channels, and transporters, Eurofins) ) EUB0000271b KCNA1; conditions: at 1 µM
[7] = target: Fibroblast growth factor receptor 1 (Homo sapiens, UniProt P11362); assay: Selectivity interaction (KinomeScan (DiscoverX)) EUB0000595a FGFR1; conditions: at 10 µM
[8] = target: Calcium/calmodulin-dependent protein kinase type II subunit delta (Homo sapiens) (UniProt Q13557); assay: Selectivity interaction (KinomeScan (DiscoverX)) EUB0000045b CAMK2D
Chain of Calcium/calmodulin-dependent protein kinase type II subunit delta (Homo sapiens) (Q13557 whole entry): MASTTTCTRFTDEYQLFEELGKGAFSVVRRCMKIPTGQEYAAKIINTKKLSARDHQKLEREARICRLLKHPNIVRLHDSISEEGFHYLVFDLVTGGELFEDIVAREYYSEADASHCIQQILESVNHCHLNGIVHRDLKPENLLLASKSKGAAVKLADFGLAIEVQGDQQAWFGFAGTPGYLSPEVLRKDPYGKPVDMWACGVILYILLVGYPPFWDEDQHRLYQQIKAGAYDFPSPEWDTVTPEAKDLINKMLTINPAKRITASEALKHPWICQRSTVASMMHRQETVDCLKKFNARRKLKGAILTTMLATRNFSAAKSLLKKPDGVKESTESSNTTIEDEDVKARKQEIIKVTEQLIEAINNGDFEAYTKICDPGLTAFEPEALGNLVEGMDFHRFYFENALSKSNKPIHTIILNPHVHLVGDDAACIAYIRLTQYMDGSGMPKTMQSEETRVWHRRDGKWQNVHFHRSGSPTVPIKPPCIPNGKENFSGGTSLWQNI

[9] = target: Cyclin-dependent kinase 11B (Homo sapiens) (UniProt P21127); assay: Selectivity interaction (KinomeScan (DiscoverX)) EUB0000045b CDK11B
Chain of Cyclin-dependent kinase 11B (Homo sapiens) (P21127 whole entry): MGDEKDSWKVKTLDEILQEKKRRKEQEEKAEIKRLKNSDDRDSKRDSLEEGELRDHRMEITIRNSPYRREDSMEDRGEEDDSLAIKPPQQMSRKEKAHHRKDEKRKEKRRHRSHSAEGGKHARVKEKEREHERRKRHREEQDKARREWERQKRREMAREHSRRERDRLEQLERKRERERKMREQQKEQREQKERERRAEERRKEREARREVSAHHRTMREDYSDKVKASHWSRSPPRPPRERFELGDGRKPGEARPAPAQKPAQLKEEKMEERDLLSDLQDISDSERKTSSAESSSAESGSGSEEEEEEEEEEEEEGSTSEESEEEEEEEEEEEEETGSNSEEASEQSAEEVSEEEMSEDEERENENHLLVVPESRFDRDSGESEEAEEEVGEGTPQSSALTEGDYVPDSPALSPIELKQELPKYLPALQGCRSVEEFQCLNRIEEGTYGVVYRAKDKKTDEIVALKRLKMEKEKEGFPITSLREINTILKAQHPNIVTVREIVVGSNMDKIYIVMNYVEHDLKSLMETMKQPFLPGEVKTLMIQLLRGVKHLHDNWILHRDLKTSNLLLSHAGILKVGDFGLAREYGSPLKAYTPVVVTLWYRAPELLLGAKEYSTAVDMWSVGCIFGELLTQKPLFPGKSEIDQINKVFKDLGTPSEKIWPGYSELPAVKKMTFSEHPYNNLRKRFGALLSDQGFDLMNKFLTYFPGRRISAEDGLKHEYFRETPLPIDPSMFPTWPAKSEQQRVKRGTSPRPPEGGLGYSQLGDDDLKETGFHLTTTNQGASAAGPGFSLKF

[10] = Selectivity interaction (KinomeScan (DiscoverX)) EUB0000618a PKNB; conditions: at 10 µM
[11] = target: Ribosomal protein S6 kinase alpha-1 (Homo sapiens, UniProt Q15418); assay: Selectivity interaction (Ambit KINOMEscan and KiNATiv profiling in Jurkat cells) EUB0000090b RPS6KA1; type: cell-based; conditions: at 1 µM
[12] = target: Protein arginine N-methyltransferase 5 (Homo sapiens, UniProt O14744); conditions: at 1 µM
Chain of Protein arginine N-methyltransferase 5 (O14744 whole entry): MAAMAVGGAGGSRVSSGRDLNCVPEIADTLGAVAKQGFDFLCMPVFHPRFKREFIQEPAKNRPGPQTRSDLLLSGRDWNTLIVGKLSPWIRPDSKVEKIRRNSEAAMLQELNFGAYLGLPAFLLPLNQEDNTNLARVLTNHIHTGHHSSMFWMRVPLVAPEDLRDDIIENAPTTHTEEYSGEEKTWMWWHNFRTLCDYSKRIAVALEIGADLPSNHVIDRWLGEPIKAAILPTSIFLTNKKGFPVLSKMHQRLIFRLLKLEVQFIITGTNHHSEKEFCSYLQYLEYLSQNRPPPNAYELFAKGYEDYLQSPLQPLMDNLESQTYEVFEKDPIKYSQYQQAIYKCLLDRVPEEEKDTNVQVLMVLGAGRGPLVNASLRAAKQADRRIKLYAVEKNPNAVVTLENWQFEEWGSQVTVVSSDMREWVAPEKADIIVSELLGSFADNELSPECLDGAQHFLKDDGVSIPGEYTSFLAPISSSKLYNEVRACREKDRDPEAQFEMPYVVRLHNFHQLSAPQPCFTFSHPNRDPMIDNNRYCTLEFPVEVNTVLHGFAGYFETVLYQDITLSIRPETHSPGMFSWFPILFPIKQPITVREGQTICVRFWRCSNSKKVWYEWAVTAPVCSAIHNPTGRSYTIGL

[13] = target: Cyclin-dependent kinase 17 (Homo sapiens) (UniProt Q00537); assay: Selectivity interaction (ActivX KiNativ screen (ex vivo kinase selectivity in human PBMCs)) EUB0001619a CDK17; type: cell-based; conditions: PBMC, at 1 µM
[14] = target: Serine/threonine-protein kinase Chk2 (Homo sapiens) (UniProt O96017); assay: Selectivity interaction (ActivX KiNativ screen (ex vivo kinase selectivity in human PBMCs)) EUB0001619a CHEK2; type: cell-based; conditions: PBMC, at 1 µM
Chain of Serine/threonine-protein kinase Chk2 (Homo sapiens) (O96017 whole entry): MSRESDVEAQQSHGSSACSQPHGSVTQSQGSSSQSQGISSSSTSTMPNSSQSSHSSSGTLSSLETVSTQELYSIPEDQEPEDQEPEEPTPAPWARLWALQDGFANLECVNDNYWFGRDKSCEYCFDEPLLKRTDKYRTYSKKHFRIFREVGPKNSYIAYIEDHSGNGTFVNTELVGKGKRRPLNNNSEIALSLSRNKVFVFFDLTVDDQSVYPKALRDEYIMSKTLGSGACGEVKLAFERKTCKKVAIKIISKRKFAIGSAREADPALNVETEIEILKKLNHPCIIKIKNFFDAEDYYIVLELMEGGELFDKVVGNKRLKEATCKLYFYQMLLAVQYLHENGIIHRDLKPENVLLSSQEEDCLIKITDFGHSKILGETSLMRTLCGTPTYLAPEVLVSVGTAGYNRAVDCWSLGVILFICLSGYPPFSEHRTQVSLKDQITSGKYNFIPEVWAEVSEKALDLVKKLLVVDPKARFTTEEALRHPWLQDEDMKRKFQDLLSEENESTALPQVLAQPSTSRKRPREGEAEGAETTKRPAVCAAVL

In the case of `CC(C)(O)[C@H](F)CN1Cc2cc(NC(=O)c3cnn4cccnc34)c(N3CCOCC3)cc2C1=O`, the dTM [1] is reported as -1.2 K.
For `COc1cc(N(C)c2ccnc3ccc(C(F)(F)F)cc23)cc(OC)c1OC`, the % binding [2] was 91%.
`Cc1cc([C@@H](C)Nc2ccccc2C(=O)O)c2nc(N3CCOCC3)cc(=O)n2c1` [AZD-6482] showed a % of control [3] of 96%.
Compound `Cn1cc(-n2cnc3c(NCc4nc5cc(Cl)c(Cl)cc5[nH]4)nc(N4CCOCC4)nc32)cn1` has a % of inhibition [4] of 13.7%.
In the case of `CC[C@@H]1[C@H](F)C(=O)N[C@@H]1COc1nccc2cc(C(N)=O)c(OC)cc12` [ZIMLOVISERTIB], the % of inhibition [5] is reported as -9.19%.
`Cc1cc(C)cc([C@@H]2c3cc(C)ccc3NC(=O)CN2C(=O)c2ccc(Br)s2)c1` gave a % of inhibition [6] of -10%.
Work on `COCC(=O)NC/C=C/c1ccc2ncnc(Nc3ccc(Oc4ccc(C)nc4)c(C)c3)c2c1` [CP-724714] yielded a % of control [7] of 100%.
For `C=CC(=O)Nc1cc(-n2c(=O)ccc3cnc4ccc(-c5ccc(NS(C)(=O)=O)cc5)cc4c32)ccc1C`, the % of control ([8]; at 1 µM) was 100%, the % of control ([8]; at 10 µM) was 92% and the % of control ([9]; at 1 µM) was 100%. It also gave a % of control ([9]; at 10 µM) of 99%.
Work on `O[C@H]1CC[C@H](Nc2ncc3nc(Nc4c(F)cc(F)cc4F)n([C@H]4CCOC4)c3n2)CC1` yielded a % of control [10] of 92%.
Compound `CN(C)C/C=C/C(=O)Nc1ccc(C(=O)N2CCCC(Nc3ncc(Cl)c(-c4c[nH]c5ccccc45)n3)C2)cc1` (stereo unspecified) has a % of control [11] of 89%.
`CNCCN1CCC(c2cc(CN(C)C(=O)c3cccc(Oc4ccccc4)c3)ccn2)CC1` gave a % activity [12] greater than 90%.
Compound `N#Cc1cccc(-c2c[nH]c3ncnc(N4CCOCC4)c23)c1` has a % of inhibition [13] of 25% and a % of inhibition [14] of 2%.
